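The compound was tested at five concentrations on cells cultured in 96-well plates, with a 48-hour exposure period. GI50: concentration for 50% inhibition of growth.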 The source made the active and inactive calls. Cut-off read from the data, not from the text of the source: active = GI50 up to about 1.1 µM and inactive = higher.
Experiments:
Assay in all cases: DTP human tumour cell line panel, 48 h
IGROV-1 = tested on: IGROV-1
NCI-H460 = tested on: NCI-H460
SF-268 = tested on: SF-268
UACC-62 = tested on: UACC-62
HT-29 = tested on: HT-29
NCI-H23 = tested on: NCI-H23
U-251 = tested on: U-251
SK-MEL-5 = tested on: SK-MEL-5
KM12 = tested on: KM12
A549 = tested on: A549
OVCAR-3 = tested on: OVCAR-3
K562 = tested on: K562
OVCAR-5 = tested on: OVCAR-5
UO-31 = tested on: UO-31
SK-OV-3 = tested on: SK-OV-3
TK-10 = tested on: TK-10
SNB-19 = tested on: SNB-19
SF-539 = tested on: SF-539
SW-620 = tested on: SW-620
COLO 205 = tested on: COLO 205

| Compound | GI50 (IGROV-1) | GI50 (NCI-H460) | GI50 (SF-268) | GI50 (UACC-62) | GI50 (HT-29) | GI50 (NCI-H23) | GI50 (U-251) | GI50 (SK-MEL-5) | GI50 (KM12) | GI50 (A549) | GI50 (OVCAR-3) | GI50 (K562) | GI50 (OVCAR-5) | GI50 (UO-31) | GI50 (SK-OV-3) | GI50 (TK-10) | GI50 (SNB-19) | GI50 (SF-539) | GI50 (SW-620) | GI50 (COLO 205) |
| --- | --- | --- | --- | --- | --- | --- | --- | --- | --- | --- | --- | --- | --- | --- | --- | --- | --- | --- | --- | --- |
| C[C@]12CC[C@@H]3c4ccc(O)cc4CC[C@H]3[C@@H]1C/C(=C\c1ccncc1)C2=O | 15.1 µM (inactive) | 9.4 µM (inactive) | 30.1 µM (inactive) | 10.3 µM (inactive) | 19.3 µM (inactive) | 29 µM (inactive) | 16.1 µM (inactive) | 8.04 µM (inactive) | 13.7 µM (inactive) | 19.1 µM (inactive) | 14.8 µM (inactive) | 8.61 µM (inactive) | 27.5 µM (inactive) | 35.6 µM (inactive) | 35.1 µM (inactive) | 29.2 µM (inactive) | 38.5 µM (inactive) | 10.9 µM (inactive) | 27.5 µM (inactive) | 29.7 µM (inactive) |
| O=[N+]([O-])c1cccc2nc3ccccc3c(NCCNCCO)c12 | 0.00198 µM (active) | 0.00184 µM (active) | 0.00134 µM (active) | 0.01 µM (active) | 0.00361 µM (active) | 0.00146 µM (active) | 0.0118 µM (active) | 0.00153 µM (active) | 0.0122 µM (active) | 0.00337 µM (active) | 0.00558 µM (active) | 0.00427 µM (active) | 0.0109 µM (active) | 0.07 µM (active) | 0.0374 µM (active) | 0.0385 µM (active) | 0.0349 µM (active) | 0.0326 µM (active) | 0.00899 µM (active) | 0.00176 µM (active) |
| COC(=O)N/N=C(/CC1(O)C(=O)Nc2ccc([N+](=O)[O-])cc21)c1ccccc1 (stereo not given) | > 46.7 µM (inactive) | 63.8 µM (inactive) | 45.4 µM (inactive) | 24.7 µM (inactive) | 31.4 µM (inactive) | 21.3 µM (inactive) | 29.9 µM (inactive) | 23.9 µM (inactive) | 34.4 µM (inactive) | 63.1 µM (inactive) | 44.3 µM (inactive) | 40.7 µM (inactive) | > 79.6 µM (inactive) | 40.9 µM (inactive) | 66.4 µM (inactive) | 24.9 µM (inactive) | 38.9 µM (inactive) | 38 µM (inactive) | 37.8 µM (inactive) | 50.7 µM (inactive) |
| Fc1ccccc1C1CC(C(c2ccccc2)c2ccccc2)=Nc2ccccc2S1 (stereo not given) | 6.95 µM (inactive) | 4.89 µM (inactive) | 11.4 µM (inactive) | 3.27 µM (inactive) | 5.61 µM (inactive) | 5.89 µM (inactive) | 12.6 µM (inactive) | 11.2 µM (inactive) | 5.38 µM (inactive) | 11.4 µM (inactive) | 11.3 µM (inactive) | 2.73 µM (inactive) | 12.1 µM (inactive) | 14 µM (inactive) | 26.9 µM (inactive) | 10.7 µM (inactive) | 14.4 µM (inactive) | 21.9 µM (inactive) | 6.04 µM (inactive) | 14.8 µM (inactive) |
| COC(=O)C(C(=O)OC)C1CC(=O)c2c(Br)sc(Br)c21 (stereo not given) | 14.1 µM (inactive) | 18.6 µM (inactive) | 18.5 µM (inactive) | 13.5 µM (inactive) | 15.4 µM (inactive) | 12.8 µM (inactive) | 16.3 µM (inactive) | 15.1 µM (inactive) | 29.2 µM (inactive) | 25 µM (inactive) | 2.06 µM (inactive) | 21 µM (inactive) | 15.1 µM (inactive) | 14.5 µM (inactive) | 17.9 µM (inactive) | 31.5 µM (inactive) | 20.5 µM (inactive) | 18.6 µM (inactive) | 11.5 µM (inactive) | 15.2 µM (inactive) |
| CC1C(C)(C)C23CC12C1(OCCO1)C3Br (stereo not given) | > 100 µM (inactive) | > 100 µM (inactive) | > 100 µM (inactive) | > 100 µM (inactive) | > 100 µM (inactive) | > 100 µM (inactive) | > 100 µM (inactive) | > 100 µM (inactive) | > 100 µM (inactive) | > 100 µM (inactive) | > 100 µM (inactive) | > 100 µM (inactive) | > 100 µM (inactive) | 11.2 µM (inactive) | > 100 µM (inactive) | > 100 µM (inactive) | > 100 µM (inactive) | > 100 µM (inactive) | > 100 µM (inactive) | > 100 µM (inactive) |
| COC(=O)c1cc2c(cc1CC(Cc1ccc3c(c1)CCC3)C(=O)OC)CCC2 (stereo not given) | > 100 µM (inactive) | 65.5 µM (inactive) | 54.6 µM (inactive) | > 100 µM (inactive) | 26.1 µM (inactive) | 63.5 µM (inactive) | 50.9 µM (inactive) | 17.6 µM (inactive) | 46.1 µM (inactive) | 34 µM (inactive) | > 100 µM (inactive) | 34.2 µM (inactive) | 60.7 µM (inactive) | 63.7 µM (inactive) | 60.1 µM (inactive) | 88.5 µM (inactive) | > 100 µM (inactive) | 35 µM (inactive) | 74 µM (inactive) | 29.5 µM (inactive) |
| Cn1c(=O)c2c3oc(=O)cc(O)c3c(=O)n3c4ccccc4n(c1=O)c23 | 44.2 µM (inactive) | 37.2 µM (inactive) | 47.6 µM (inactive) | 35 µM (inactive) | 39.7 µM (inactive) | 35.6 µM (inactive) | 41.4 µM (inactive) | 28 µM (inactive) | 35.6 µM (inactive) | 45.7 µM (inactive) | 24.6 µM (inactive) | 20.3 µM (inactive) | 52.5 µM (inactive) | 28.8 µM (inactive) | > 100 µM (inactive) | > 100 µM (inactive) | > 100 µM (inactive) | 47.6 µM (inactive) | 40.5 µM (inactive) | 27.9 µM (inactive) |
| O=NN1CCN=C1c1ccc([N+](=O)[O-])cc1 | > 100 µM (inactive) | > 100 µM (inactive) | > 100 µM (inactive) | > 100 µM (inactive) | > 100 µM (inactive) | > 100 µM (inactive) | > 100 µM (inactive) | > 100 µM (inactive) | > 100 µM (inactive) | > 100 µM (inactive) | > 100 µM (inactive) | > 100 µM (inactive) | > 100 µM (inactive) | 66.2 µM (inactive) | > 100 µM (inactive) | > 100 µM (inactive) | > 100 µM (inactive) | > 100 µM (inactive) | > 100 µM (inactive) | > 100 µM (inactive) |
| C/C(=N\Nc1nc2ccccc2[nH]1)c1cccc[n+]1[O-] | 63.4 µM (inactive) | 49.2 µM (inactive) | > 100 µM (inactive) | 87.1 µM (inactive) | 32.1 µM (inactive) | > 100 µM (inactive) | 75 µM (inactive) | > 100 µM (inactive) | 44.7 µM (inactive) | > 100 µM (inactive) | 37.6 µM (inactive) | > 100 µM (inactive) | 8.91 µM (inactive) | 64.6 µM (inactive) | > 100 µM (inactive) | 67.1 µM (inactive) | > 100 µM (inactive) | > 100 µM (inactive) | > 100 µM (inactive) | 65.8 µM (inactive) |
| CC(C)(C)[Si](C)(C)OCC1OC(n2cnc3c(NC(=O)c4ccccc4)ncnc32)CC1O (stereo not given) | 33.7 µM (inactive) | 32.7 µM (inactive) | 64.4 µM (inactive) | 18.7 µM (inactive) | 36.5 µM (inactive) | 48.9 µM (inactive) | 20.5 µM (inactive) | 17.5 µM (inactive) | 34.7 µM (inactive) | 42.7 µM (inactive) | 39.9 µM (inactive) | 23.4 µM (inactive) | 36.7 µM (inactive) | 1.47 µM (inactive) | 23.2 µM (inactive) | 58.7 µM (inactive) | 28.6 µM (inactive) | 23.3 µM (inactive) | 40.9 µM (inactive) | 18.3 µM (inactive) |
| Cc1nc2c(sc(=S)n2-c2ccccc2)c(=O)[nH]1 | > 100 µM (inactive) | > 100 µM (inactive) | > 100 µM (inactive) | > 100 µM (inactive) | > 100 µM (inactive) | > 100 µM (inactive) | > 100 µM (inactive) | > 100 µM (inactive) | > 100 µM (inactive) | > 100 µM (inactive) | > 100 µM (inactive) | > 100 µM (inactive) | > 100 µM (inactive) | > 100 µM (inactive) | > 100 µM (inactive) | > 100 µM (inactive) | > 100 µM (inactive) | > 100 µM (inactive) | > 100 µM (inactive) | > 100 µM (inactive) |
| CCCCCCCCC(O)c1ccc(/C=C\C(O)CCCC(=O)O)s1 (stereo not given) | > 100 µM (inactive) | > 100 µM (inactive) | > 100 µM (inactive) | > 100 µM (inactive) | > 100 µM (inactive) | > 100 µM (inactive) | > 100 µM (inactive) | > 100 µM (inactive) | > 100 µM (inactive) | > 100 µM (inactive) | > 100 µM (inactive) | > 100 µM (inactive) | > 100 µM (inactive) | > 100 µM (inactive) | > 100 µM (inactive) | > 100 µM (inactive) | > 100 µM (inactive) | > 100 µM (inactive) | > 100 µM (inactive) | > 100 µM (inactive) |
| O=C(O)c1cnc2c(ccc3ncc(C(=O)O)c(O)c32)c1O | > 100 µM (inactive) | > 100 µM (inactive) | > 100 µM (inactive) | > 100 µM (inactive) | > 100 µM (inactive) | > 100 µM (inactive) | > 100 µM (inactive) | > 100 µM (inactive) | > 100 µM (inactive) | > 100 µM (inactive) | > 100 µM (inactive) | > 100 µM (inactive) | > 100 µM (inactive) | > 100 µM (inactive) | > 100 µM (inactive) | > 100 µM (inactive) | > 100 µM (inactive) | > 100 µM (inactive) | > 100 µM (inactive) | > 100 µM (inactive) |

— ChEMBL document CHEMBL1201862, “PubChem BioAssay data set” (2004)
